US9427415B2, “Methods and compositions for modifying sensorial perception” (The Procter & Gamble Company, priority 2014, dated 2016)
Where two headings read alike, the source gives them in different places.

Assays:
[1] = tested on: TRPA1V1; test: Intracellular calcium (Fluo-4, FLIPR) activation of TRPA1V1 cells (co-expressing TRPA1 and TRPV1) by GRAS compounds; type: cell-based, human;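 note: HEK293 cells co-expressing TRPA1 and TRPV1, fluorescence read at 488/514 nm after baseline subtraction, recorded every 2 s over 10 min, ionomycin 10 µM and buffer as controls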
[2] = biological target: T1, human TRPA1 (Homo sapiens, UniProt O75762, K186N/R3C/R58T); test: Intracellular calcium (Fluo-4, FLIPR) activation of TRPA1 cells by GRAS compounds; type: cell-based; details: relative to AITC 30 μM; for activation at 100 µM / activation at 1000 µM: read-out: A1 activation, % of agonist value; for activation at 1000 µM / A1 activation, % of agonist value: 1 mM;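 for all read-outs here: TRPA1-expressing cells, fluorescence read on a FLIPR Tetra (ex 488 nm, em 514 nm) every 2 s for 10 min after compound addition, baseline subtracted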
T1 construct: expressed in transfected cells; pcDNA3 control cells
T1 sequence (O75762 whole entry R3C/R58T/K186N): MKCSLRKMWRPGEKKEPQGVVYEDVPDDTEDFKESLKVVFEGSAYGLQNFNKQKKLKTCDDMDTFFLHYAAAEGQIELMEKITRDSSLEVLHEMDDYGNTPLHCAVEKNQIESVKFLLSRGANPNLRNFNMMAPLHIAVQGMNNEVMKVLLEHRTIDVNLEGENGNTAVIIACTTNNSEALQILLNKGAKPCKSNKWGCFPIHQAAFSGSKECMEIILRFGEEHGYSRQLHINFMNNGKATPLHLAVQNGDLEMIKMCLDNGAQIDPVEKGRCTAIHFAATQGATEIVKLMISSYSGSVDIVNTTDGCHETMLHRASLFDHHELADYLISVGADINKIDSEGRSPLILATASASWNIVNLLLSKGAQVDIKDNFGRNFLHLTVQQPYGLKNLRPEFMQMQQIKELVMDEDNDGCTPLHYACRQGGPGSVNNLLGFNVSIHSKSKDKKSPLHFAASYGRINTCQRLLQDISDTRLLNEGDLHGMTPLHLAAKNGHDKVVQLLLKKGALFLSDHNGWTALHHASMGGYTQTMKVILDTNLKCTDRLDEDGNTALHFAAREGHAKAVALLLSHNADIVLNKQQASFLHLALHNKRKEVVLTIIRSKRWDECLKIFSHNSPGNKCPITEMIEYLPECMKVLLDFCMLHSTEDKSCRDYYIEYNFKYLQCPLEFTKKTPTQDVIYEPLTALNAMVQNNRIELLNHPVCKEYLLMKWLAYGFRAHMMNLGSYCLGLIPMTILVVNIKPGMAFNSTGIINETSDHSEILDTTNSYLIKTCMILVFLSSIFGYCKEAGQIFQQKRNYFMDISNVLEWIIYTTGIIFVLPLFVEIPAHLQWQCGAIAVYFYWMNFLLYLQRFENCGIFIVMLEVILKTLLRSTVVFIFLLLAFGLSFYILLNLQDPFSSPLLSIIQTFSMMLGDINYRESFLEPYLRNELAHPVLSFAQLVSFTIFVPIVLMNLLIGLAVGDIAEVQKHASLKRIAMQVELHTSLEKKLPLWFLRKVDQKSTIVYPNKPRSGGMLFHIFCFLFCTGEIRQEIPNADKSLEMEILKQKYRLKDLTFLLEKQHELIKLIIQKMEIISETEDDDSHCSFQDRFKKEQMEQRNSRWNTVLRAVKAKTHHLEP

[3] = biological target: T2, human TRPV1 (Homo sapiens, UniProt Q8NER1, M315I/T336M); test: Intracellular calcium (Fluo-4, FLIPR) activation of TRPV1 cells by GRAS compounds; type: cell-based; details: relative to capsaicin 350 nM; for activation at 1000 µM / V1 activation, % of agonist value: 1 mM; for activation at 1000 µM / activation at 100 µM: read-out: V1 activation, % of agonist value;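 for all read-outs here: TRPV1-expressing cells, FLIPR fluorescence at 488/514 nm with baseline subtracted, sampled every 2 s for 10 min after adding compound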
T2 construct: expressed in transfected cells; pcDNA3 control cells
T2 sequence (Q8NER1 whole entry M315I/T336M): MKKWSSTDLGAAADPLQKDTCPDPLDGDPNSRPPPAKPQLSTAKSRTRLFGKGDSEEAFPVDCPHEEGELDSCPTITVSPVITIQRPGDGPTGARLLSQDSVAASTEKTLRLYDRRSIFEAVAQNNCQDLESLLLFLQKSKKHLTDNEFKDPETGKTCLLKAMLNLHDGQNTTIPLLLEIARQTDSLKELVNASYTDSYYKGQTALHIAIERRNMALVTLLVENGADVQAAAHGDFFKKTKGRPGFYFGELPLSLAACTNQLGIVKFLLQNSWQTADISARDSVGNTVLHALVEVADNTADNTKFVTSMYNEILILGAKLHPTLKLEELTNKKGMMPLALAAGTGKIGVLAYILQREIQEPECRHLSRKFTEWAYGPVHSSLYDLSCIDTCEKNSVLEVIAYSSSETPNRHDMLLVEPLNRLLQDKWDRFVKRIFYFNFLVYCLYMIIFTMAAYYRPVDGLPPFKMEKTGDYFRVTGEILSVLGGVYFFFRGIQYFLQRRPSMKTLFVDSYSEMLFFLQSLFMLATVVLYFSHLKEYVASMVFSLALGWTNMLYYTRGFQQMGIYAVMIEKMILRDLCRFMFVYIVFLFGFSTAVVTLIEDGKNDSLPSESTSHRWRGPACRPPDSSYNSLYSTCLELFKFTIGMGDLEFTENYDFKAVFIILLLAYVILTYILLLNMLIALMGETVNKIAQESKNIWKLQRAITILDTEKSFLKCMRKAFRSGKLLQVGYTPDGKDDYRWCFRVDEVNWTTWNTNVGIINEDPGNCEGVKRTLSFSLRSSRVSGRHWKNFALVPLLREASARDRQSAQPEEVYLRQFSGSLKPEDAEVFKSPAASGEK

[4] = Table 1(g), 1 mM, relative to capsaicin 350 nM
[5] = Table 1(a), 1 mM, relative to AITC 30 μM, average of three plates
[6] = Table 1(a), average of three plates
[7] = Table 1(a), 100 μM (*), relative to AITC 30 μM
[8] = Table 1(b), 1 mM, relative to AITC 30 μM
[9] = Table 1(e), 100 μM (*), relative to AITC 30 μM

With `CCCCC(=O)C(CCC)Sc1ccoc1C` (stereo not shown) [4-(2-Methyl-3-furylthio)-5-nonanone] the “A1V1 activation, % of agonist value” ([1]; Table 1(d), 100 μM (*), relative to AITC 30 μM) was 34.1%, the “A1V1 activation, % of agonist value” [1, 4] was 64% and the activation at 100 µM ([2]; Table 1(d)) was 52.5%. For the same compound, the activation at 1000 µM ([3]; Table 1(g)) was 40.6%.
With `CC1=C(O)C(=O)CO1` [4-Hydroxy-5-methyl-3-furanone] the “A1V1 activation, % of agonist value” [1, 5] was 38%, the activation at 1000 µM [2, 6] was 58% and the activation at 1000 µM [3, 6] was 40.5%.
`O=Cc1ccc(O)cc1` [4-Hydroxybenzaldehyde] was tested, and the “A1V1 activation, % of agonist value” [1, 7] was 163.2%, the “A1V1 activation, % of agonist value” ([1]; Table 1(c), 1 mM, relative to AITC 30 μM) was 60.3% and the activation at 100 µM ([2]; Table 1(a)) was 80.4%. The activation at 1000 µM ([2]; Table 1(c)) was 63% and the activation at 100 µM ([3]; Table 1(a)) was 123%.
`CC(O)CCc1ccccc1` (stereo not shown) [4-Phenyl-2-butanol] was tested, and the “A1V1 activation, % of agonist value” [1, 8] was 81.29%, the activation at 1000 µM ([2]; Table 1(b)) was 58.8% and the activation at 1000 µM ([3]; Table 1(b)) was 37.9%.
`CC/C=C\CCCCO` [5-Octen-1-ol, (Z)] was tested, and the “A1V1 activation, % of agonist value” [1, 5] was 69.24%, the “A1 activation, % of agonist value” [2, 6] was 62.30% and the “V1 activation, % of agonist value” [3, 6] was 20.50%.
With `CCCCCC(=O)CCCC(=O)O` [5-Oxodecanoic acid] the “A1V1 activation, % of agonist value” [1, 8] was 39.34%, the activation at 1000 µM ([2]; Table 1(b)) was 28.6% and the activation at 1000 µM ([3]; Table 1(b)) was 53.4%.
With `OCCCCCc1ccccc1` [5-Phenyl-1-pentanol] the “A1V1 activation, % of agonist value” [1, 8] was 52.1%, the activation at 1000 µM ([2]; Table 1(b)) was 119% and the activation at 1000 µM ([3]; Table 1(b)) was 113%.
In the case of `CCCCCC/C=C/C=O` [(E)-2-Nonenal], the “A1V1 activation, % of agonist value” [1, 8] is reported as 61.8%, the activation at 1000 µM ([2]; Table 1(b)) is reported as 130% and the activation at 1000 µM ([3]; Table 1(b)) is reported as 89%.
`C=CCSSSCC=C` [Allyl-trisulfide] was tested, and the “A1V1 activation, % of agonist value” [1, 5] was 89.08%, the activation at 1000 µM [2, 6] was 83.5% and the activation at 1000 µM [3, 6] was 32.9%.
For `CCCCCC(=Cc1ccccc1)CO` [Alpha-Amylcinnamyl alcohol], the “A1V1 activation, % of agonist value” [1, 5] was 77.36%, the activation at 1000 µM [2, 6] was 96.4% and the activation at 1000 µM [3, 6] was 21.1%.
For `CC1COC(c2ccccc2)O1` (stereo not shown) [Benzaldehyde propylene glycol acetal], the “A1V1 activation, % of agonist value” [1, 8] was 78.33%, the “A1 activation, % of agonist value” ([2]; Table 1(b)) was 48.03% and the “V1 activation, % of agonist value” ([3]; Table 1(b)) was 34.38%.
With `c1ccc2scnc2c1` [Benzothiazole] the “A1V1 activation, % of agonist value” [1, 7] was 74.4%, the activation at 100 µM ([2]; Table 1(a)) was 51.3% and the activation at 100 µM ([3]; Table 1(a)) was 33.4%.
In the case of `CC1=C(CC=O)C(C)(C)CCC1` [Beta-Cyclohomocitral], the “A1V1 activation, % of agonist value” [1, 5] is reported as 66.79%, the “A1 activation, % of agonist value” [2, 6] is reported as 81.44% and the “V1 activation, % of agonist value” [3, 6] is reported as 61.74%.
`CCCCOC(=O)c1ccc(O)cc1` [Butylparaben, Butyl 4-hydroxybenzoate] was tested, and the “A1V1 activation, % of agonist value” [1, 5] was 98.1%, the “A1V1 activation, % of agonist value” [1, 9] was 127.3% and the activation at 1000 µM [2, 6] was 105%. It also gave an activation at 100 µM ([2]; Table 1(e)) of 98.7% and an activation at 1000 µM [3, 6] of 79.1%.
With `Cc1ccc(C(C)C)cc1O` [Carvacrol] the “A1V1 activation, % of agonist value” [1, 8] was 134.1%, the activation at 1000 µM ([2]; Table 1(b)) was 115% and the activation at 1000 µM ([3]; Table 1(b)) was 84.6%.
With `CC(C)=CCCC(C)CCO` (stereo not shown) [Citronellol] the “A1V1 activation, % of agonist value” [1, 8] was 34.4%, the activation at 1000 µM ([2]; Table 1(b)) was 102% and the activation at 1000 µM ([3]; Table 1(b)) was 106%.
For `COc1cc(/C=C/C(=O)CC(=O)/C=C/c2ccc(O)c(OC)c2)ccc1O` [Curcumin], the “A1V1 activation, % of agonist value” [1, 8] was 171.6%, the “A1V1 activation, % of agonist value” [1, 9] was 150.3% and the activation at 1000 µM ([2]; Table 1(b)) was 95.3%. It also gave an activation at 100 µM ([2]; Table 1(e)) of 102% and an activation at 1000 µM ([3]; Table 1(b)) of 43.2%.
`O=C(O)CC1CCCCC1` [Cyclohexaneacetic acid] was tested, and the “A1V1 activation, % of agonist value” [1, 5] was 61.28%, the activation at 1000 µM [2, 6] was 20.6% and the activation at 1000 µM [3, 6] was 56.6%.
`CCOC(=O)C(O)Cc1ccccc1` (stereo not shown) [Ethyl 2-hydroxy-3-phenylpropanoate] was tested, and the “A1V1 activation, % of agonist value” [1, 5] was 90.76%, the activation at 1000 µM [2, 6] was 95.6% and the activation at 1000 µM [3, 6] was 29.2%.
`CC(C=O)=Cc1ccccc1` [alpha-Methylcinnamaldehyde] was tested, and the “A1V1 activation, % of agonist value” [1, 4] was 104.4% and the activation at 1000 µM ([3]; Table 1(g)) was 54.6%.
With `Cc1ccc(C=O)c(O)c1` [m-Homosalicylaldehyde] the “A1V1 activation, % of agonist value” [1, 4] was 140.7% and the activation at 1000 µM ([3]; Table 1(g)) was 56.5%.
With Tolylaldehyde glyceryl acetyl the “A1V1 activation, % of agonist value” [1, 4] was 110.7% and the “V1 activation, % of agonist value” ([3]; Table 1(g)) was 53.0%.
